# Test system: Ba/F3 ERBB2 YVMA
# Experiment: Cell viability assay (CellTiter Glo), Ba/F3 cells engineered to express ERBB2 YVMA
# Assay type: cell-based
# Settings: Mus musculus, BaF3, 72 h, Ba/F3 cells expressing human ERBB2 YVMA mutant; 72 hours; cell viability, CellTiter Glo; read-out: Ba/F3 ERBB2 YVMA, IC50
# Experimental: Cells were treated with compounds, and cell viability was measured as a metric of kinase inhibition.
# BT-474, A431, MDA-MB-175VII, NCI-H1781, MCF7, and Ba/F3 cell lines were tested. The Ba/F3 cell line is IL-3-dependent mouse cell line derived from the C3H mouse strain. Ba/F3 cell lines were engineered to express human ERBB2 or EGFR kinases, rendering the cells IL-3 independent. The lines were generated via retroviral transduction utilizing a Moloney murine leukemia virus (MMLV) promoter, and constructs are stably integrated into the cell genome. The sequences of the ERBB2 and EGFR genes used were NCBI Reference Sequences NM 004448.3 and NM 005228.3, respectively.
# BT-474, A431, MDA-MB-175VII, NCI-H1781 and MCF7 cells were grown in the appropriate growth medium as described in Table B2 below, and harvested at 50-80% confluence. BT-474, A431, MDA-MB-175VII, NCI-H1781 and MCF7 cells were counted and seeded at 2,000 or 1,500 cells per well in 384-well tissue culture plates (see Table B2). Similarly, Ba/F3 cell lines engineered to express EGFR, ERBB2, or ERBB2 mutants were grown, harvested, counted and seeded at 3000 cells per well in 96-well plates. A subset of wells contained media only (low control, “LC”).
# Table B1 provides the growth media and number of cells seeded per well for the each cell line.
# Compounds were dissolved in DMSO and serially diluted. Serially-diluted compound or a DMSO only control (high control, “HC”) was added to the plated cells in each well. Compounds were tested at concentrations of about 10 μM to 0.51 nM, using three-fold dilutions. The final proportion of DMSO never exceeded 0.1%.
# Plates were placed in a 37° C., 5% CO2 incubator for 72 hours. Plates were then removed from the incubator and equilibrated for 15 minutes at room temperature. […] of CellTiter Glo reagent (Promega) was added to measure the relative level of metabolically active cells by quantifying intracellular ATP concentrations. Plates were incubated for 30 minutes at room temperature, and luminescence was measured. Percent viability was normalized to a vehicle control only using the following formula: % viability=100×(Lumsample−LumLC)/(LumHC−LumLC). Graphical curves were fitted using a nonlinear regression model with a sigmoidal dose response.
row,Compound,IC50 [nM]
1,"Cc1cc(Nc2ncnc3cc4c(nc23)N2CCN(C(=O)/C=C/[C@H]3CCCN3C)[C@H](CO4)C2)ccc1Oc1ccn2ncnc2c1 [Compound 27, (E)-1-((10S)-4-((4-([1,2,4]triazolo[1,5-a]pyridin-7-yloxy)-3-methylphenyl)amino)-7,8,10,11-tetrahydro-9H-6,10-methanopyrimido[4′,5′:5,6]pyrido[3,2-b][1,4,7]oxadiazonin-9-yl)-3-((R)-1-methylpyrrolidin-2-yl)prop-2-en-1-one]",10.6
2,"Cc1cc(Nc2ncnc3cc4c(cc23)N2CCN(C(=O)/C=C/CN(C)C)[C@H](CO4)C2)ccc1Oc1ccn2ncnc2c1 [Compound 9, (E)-1-((10S)-4-((4-([1,2,4]triazolo[1,5-a]pyridin-7-yloxy)-3-methylphenyl)amino)-7,8,10,11-tetrahydro-9H-6,10-methano[1,4,7]oxadiazonino[3,2-g]quinazolin-9-yl)-4-(dimethylamino)but-2-en-1-one]",85.9
3,"Cc1cc(Nc2ncnc3cc4c(nc23)N2CCN(C(=O)/C=C/[C@H]3CCCN3C)[C@H](CO4)C2)c(F)cc1Oc1ccn2ncnc2c1 [Compound 41, (E)-1-((10S)-4-((4-([1,2,4]triazolo[1,5-a]pyridin-7-yloxy)-2-fluoro-5-methylphenyl)amino)-7,8,10,11-tetrahydro-9H-6,10-methanopyrimido[4′,5′:5,6]pyrido[3,2-b][1,4,7]oxadiazonin-9-yl)-34-((R)-1-methylpyrrolidin-2-yl)prop-2-en-1-one]",8.67
4,"Cc1cc(Nc2ncnc3cc4c(nc23)N2CCN(C(=O)/C=C/CN(C)C)[C@H](CO4)C2)ccc1Oc1ccc2c(c1)ncn2C [Compound 6, (E)-4-(dimethylamino)-1-((10S)-4-((3-methyl-4-((1-methyl-1H-benzo[d]imidazol-5-yl)oxy)phenyl)amino)-7,8,10,11-tetrahydro-9H-6,10-methanopyrimido[4′,5′: 5,6]pyrido[3,2-b][1,4,7]oxadiazonin-9-yl)but-2-en-1-one]",15.8
5,"CC#CC(=O)N1CCN2C[C@H]1COc1cc3ncnc(Nc4ccc(Oc5ccn6ncnc6c5)c(C)c4)c3cc12 [Compound 12, 1-((10S)-4-((4-([1,2,4]triazolo[1,5-a]pyridin-7-yloxy)-3-methylphenyl)amino)-7,8,10,11-tetrahydro-9H-6,10-methano[1,4,7]oxadiazonino[3,2-g]quinazolin-9-yl)but-2-yn-1-one]",44
6,"Cc1cc(Nc2ncnc3cc4c(nc23)N2CCN(C(=O)/C=C/CN(C)C)[C@H](CO4)C2)ccc1Oc1ccn2ccnc2c1 [Compound 34, (E)-4-(dimethylamino)-1-((10S)-4-((4-(imidazo[1,2-a]pyridin-7-yloxy)-3-methylphenyl)amino)-7,8,10,11-tetrahydro-9H-6,10-methanopyrimido[4′,5′:5,6]pyrido[3,2-b][1,4,7]oxadiazonin-9-yl)but-2-en-1-one]",7.18
7,"Cc1cc(Nc2ncnc3cc4c(nc23)N2CCN(C(=O)/C=C/CN(C)C)[C@H](CO4)C2)ccc1Oc1cccnc1 [Compound 25, (E)-4-(dimethylamino)-1-((10S)-4-((3-methyl-4-(pyridin-3-yloxy)phenyl)amino)-7,8,10,11-tetrahydro-9H-6,10-methanopyrimido[4′,5′:5,6]pyrido[3,2-b][1,4,7]oxadiazonin-9-yl)but-2-en-1-one]",2.02
8,"Cc1cc(Nc2ncnc3cc4c(nc23)N2CCN(C(=O)/C=C/CN(C)C)[C@H](CO4)C2)c(F)cc1Oc1ccn2ncnc2c1 [Compound 24, (E)-1-((10S)-4-((4-([1,2,4]triazolo[1,5-a]pyridin-7-yloxy)-2-fluoro-5-methylphenyl)amino)-7,8,10,11-tetrahydro-9H-6,10-methanopyrimido[4′,5′:5,6]pyrido[3,2-b][1,4,7]oxadiazonin-9-yl)-4-(dimethylamino)but-2-en-1-one]",6.4
9,"Cc1cc(Nc2ncnc3cc4c(nc23)N2CCN(C(=O)/C=C/[C@@H]3CCCN3C)[C@H](CO4)C2)ccc1Oc1ccn2ncnc2c1 [Compound 28, (E)-1-((10S)-4-((4-([1,2,4]triazolo[1,5-a]pyridin-7-yloxy)-3-methylphenyl)amino)-7,8,10,11-tetrahydro-9H-6,10-methanopyrimido[4′,5′:5,6]pyrido[3,2-b][1,4,7]oxadiazonin-9-yl)-3-((S)-1-methylpyrrolidin-2-yl)prop-2-en-1-one]",6.84
10,"Cc1cc(Nc2ncnc3cc4c(cc23)N2CCN(C(=O)/C=C/CN(C)C)[C@@H](CO4)C2)ccc1Oc1ccn2ncnc2c1 [Compound 8, (E)-1-((10R)-4-((4-([1,2,4]triazolo[1,5-a]pyridin-7-yloxy)-3-methylphenyl)amino)-7,8,10,11-tetrahydro-9H-6,10-methano[1,4,7]oxadiazonino[3,2-g]quinazolin-9-yl)-4-(dimethylamino)but-2-en-1-one]",> 500
11,CC#CC(=O)N1CCN2C[C@H]1COc1cc3ncnc(Nc4ccc(Oc5ccc6c(c5)ncn6C)c(C)c4)c3cc12 [Compound 11],37.7

# Continued, values first:
row,IC50 [nM],Compound
1,117,"Cc1cc(Nc2ncnc3cc4c(nc23)N2CCN(C(=O)/C=C/C3(F)CN(C)C3)[C@H](CO4)C2)ccc1Oc1ccn2ncnc2c1 [Compound 53, (E)-1-((10S)-4-((4-([1,2,4]triazolo[1,5-a]pyridin-7-yloxy)-3-methylphenyl)amino)-7,8,10,11-tetrahydro-9H-6,10-methanopyrimido[4′,5′:5,6]pyrido[3,2-b][1,4,7]oxadiazonin-9-yl)-3-(3-fluoro-1-methylazetidin-3-yl)prop-2-en-1-one]"
2,4.65,"CN(C)C/C=C/C(=O)N1CCN2C[C@H]1COc1cc3ncnc(Nc4cc(Cl)c(Oc5ccn6ncnc6c5)cc4F)c3nc12 [Compound 43, (E)-1-((10S)-4-((4-([1,2,4]triazolo[1,5-a]pyridin-7-yloxy)-5-chloro-2-fluorophenyl)amino)-7,8,10,11-tetrahydro-9H-6,10-methanopyrimido[4′,5′:5,6]pyrido[3,2-b][1,4,7]oxadiazonin-9-yl)-4-(dimethylamino)but-2-en-1-one]"
3,105,"Cc1cc(Nc2ncnc3ccc(NC4=NC(C)(C)CO4)cc23)ccc1Oc1ccn2ncnc2c1 [Tucatinib, tucatinib, reference compound]"
4,37.6,"CNC/C=C/C(=O)N1CCN2C[C@H]1COc1cc3ncnc(Nc4cc(C)c(Oc5ccn6ncnc6c5)cc4F)c3nc12 [Compound 49, (E)-1-((10S)-4-((4-([1,2,4]triazolo[1,5-a]pyridin-7-yloxy)-2-fluoro-5-methylphenyl)amino)-7,8,10,11-tetrahydro-9H-6,10-methanopyrimido[4′,5′:5,6]pyrido[3,2-b][1,4,7]oxadiazonin-9-yl)-4-(methylamino)but-2-en-1-one]"
5,3.37,Cc1cc(Nc2ncnc3cc4c(nc23)N2CCN(C(=O)/C=C/CN(C)C)[C@H](CO4)C2)ccc1Oc1cncc(F)c1 [Compound 51]
6,9.18,Cc1cc(Nc2ncnc3cc4c(nc23)N2CCN(C(=O)/C=C/CN(C)C)[C@H](CO4)C2)c(F)cc1Oc1cncc(F)c1 [Compound 44]

# Same assay, conditions: Mus musculus, BaF3, 72 h, read-out: Ba/F3 ERBB2 YVMA, IC50, nM
row,Compound,IC50 [nM]
1,"CN(C)C/C=C/C(=O)N1CCN2C[C@H]1COc1cc3ncnc(Nc4cc(F)c(Oc5ccn6ncnc6c5)cc4F)c3nc12 [Compound 48, (E)-1-((10S)-4-((4-([1,2,4]triazolo[1,5-a]pyridin-7-yloxy)-2,5-difluorophenyl)amino)-7,8,10,11-tetrahydro-9H-6,10-methanopyrimido[4′,5′:5,6]pyrido[3,2-b][1,4,7]oxadiazonin-9-yl)-4-(dimethylamino)but-2-en-1-one]",4.85

# Source: patent US11807649B2, “Fused tetracyclic quinazoline derivatives as inhibitors of ErbB2” (EnLiven Therapeutics, Inc., priority 2021, dated 2023)
